From patent US20240057598A1, “USE OF 2-AMINO-3-METHYLHEXANOIC ACID AS PLANT IMMUNITY INDUCER” (NANJING AGRICULTURAL UNIVERSITY, priority 2020, published 2024)

Legend:
[1] = system: Achromobacter butyri; details: cited from earlier work
[2] = system: tea "Baiye 1" cutting seedlings; experiment: Induced resistance of tea to low temperature stress; assay type: in vivo; details: for PIABS / Cold injury index: tea seedlings, −4° C. for 24 h; for Cold injury index: 3 days recovery
Method: The tea trees tested were “Baiye 1” cutting seedlings. Tea seedlings with relatively consistent growth were transplanted into a plastic pot with a diameter of 18 cm and placed in a greenhouse at a temperature of 25° C. and a humidity of 60%-70% for adaptive growth for about a week. The concentrations of 0, 1, 10, 100 and 1,000 nM were set in the experiment, and 0.02% Tween 20 was added as a surfactant. The spray treatment method was the same as that of the ryegrass in Example 4, and the low temperature stress treatment was conducted at −4° C. for 24 h. After the stress was completed, the tea seedlings were taken out and treated in the dark at room temperature for 30 min, and then the chlorophyll fluorescence parameters of the top leaves of the tea seedlings was determined using the plant efficiency analyzer Handy PEA. Then, the tea seedlings were placed in a 25° C. greenhouse to recover for 3 days, and the cold injury status was observed, counted and graded.

[3] = system: Pseudomonas aeruginosa; details: cited from earlier work
[4] = system: Brevibacterium helvolum; details: cited from earlier work
[5] = system: Aerobacter aerogenes; details: cited from earlier work
[6] = system: tea variety Longjing 43; experiment: Field test: resistance of tea plants to high temperature and tea quality; assay type: in vivo; details: for Amino acid content: 5th day after use, tea leaves under high temperature stress; for Heat injury rate: 10th day after use, field; for PIABS: field heat stress
Method: In August 2020, a field test was conducted in the Sun Yat-sen Mausoleum Tea Garden in Nanjing, and the tea variety was Longjing 43. During the test, the actual temperature of the field was 37.6° C.-45.1° C., the concentration of 2-amino-3-methylhexanoic acid was 0, 10, 100, 1,000 and 10,000 nM, and 0.02% Tween 20 was added as a surfactant. Three repetitions were set for each treatment group. In a plot area of 20 m^2, the liquid spraying volume per plot was 2 L. The pesticide was applied to the field three times on August 6, August 8 and Aug. 15, 2020 respectively. On the 3rd, 7th and 14th days after the last use of the pesticide, the phenotype of a tea tree was observed, and a leaf and a bud were sampled from the top of the tea tree. 15 leaves were taken for each treatment group, and the chlorophyll fluorescence parameter PIABS ([…]) of tea leaves was determined with a plant efficiency analyzer Handy-PEA. Samples were taken and the total amino acid content in tea leaves was determined on the 5th day after use of the pesticide, and the heat injury rate was calculated on the 10th day after use of the pesticide.

[7] = system: Pseudomonas syringae PstDC3000; experiment: Induced resistance of Arabidopsis to Pseudomonas syringae infection; assay type: in vivo; details: for Number of bacteria in each milligram of leaf: Arabidopsis leaves, 3 days after inoculation; for Decrease of number of bacteria in each milligram of leaf: compared with blank control; for Decrease of disease index: versus blank control
Method: 2-amino-3-methylhexanoic acid was dissolved in sterile water and then diluted with sterile water into solutions of 1 nM, 10 nM, 100 nM, 1,000 nM and 10,000 nM by gradient. A blank control was additionally set, and 0.02% Tween 20 was added as a surfactant. Pseudomonas syringae PstDC3000 was spread on an LB plate and cultured at 28° C. for 48 h. Monoclonal colonies were selected and transferred into a 50 mL centrifuge tube containing 2 mL of a culture medium, and cultured on a shaker at 28° C. and 250 rpm. The change of the OD600 value of the bacterial solution was monitored every 1-2 h, and culture of bacteria was stopped before the OD600 value reached 0.8. 1 mL of bacterial solution was transferred into a 1.5 mL sterile centrifuge tube and centrifuged at 8,000 rpm for 2 min, and the precipitate was collected. The supernatant was removed, the precipitate was washed with 10 mM magnesium chloride three times and centrifuged, and finally the PstDC3000 was suspended in 10 mM magnesium chloride to make the OD600 value thereof reach 0.001 for use. Arabidopsis seeds were soaked in 75% alcohol for 3 min, then washed with sterile water 4 times, and sowed in a culture dish containing a ½ MS medium according to 12 seeds per culture dish. The ½ MS culture dish with seeds was vernalized at 4° C. for 3 days to break dormancy, and then placed in a culture room at 24° C. with a light intensity of 100 μEm^−2s^−1 (16 h light/8 h dark). When the seedlings grew for 2 weeks, the 2-amino-3-methylhexanoic acid of different concentrations was slowly poured into the culture dish until the whole Arabidopsis seedlings were submerged, and after 2-3 min, the treatment solution was poured out of the culture dish. The treatment was repeated once after 24 h and conducted twice in total. 24 h after the second treatment, the Arabidopsis leaves were inoculated with the PstDC3000 suspension (OD600=0.01) by the same submergence method. After inoculation, the culture dish was closed with a medical breathable adhesive tape, and placed in the culture room for further culture. 3 days later, the number of bacteria in different treatment groups was determined. The incidence of Arabidopsis was observed. The disease index was calculated by a formula the same as that in Example 1.
Grading standard of disease caused by PstDC3000 (per leaf): • Grade 0: No diseased spot on the leaf surface. • Grade 1: The diseased spot area accounts for 0-10% of the whole leaf area. • Grade 2: The diseased spot area accounts for 10-25% of the whole leaf area. • Grade 3: The diseased spot area accounts for 25-50% of the whole leaf area. • Grade 4: The diseased spot area accounts for 50-75% of the whole leaf area. • Grade 5: The diseased spot area accounts for 75-100% of the whole leaf area.

[8] = system: Bacillus subtilis; details: cited from earlier work
[9] = 1,000 nM, tea leaves, low temperature stress

CCCC(C)C(N)C(=O)O (centres unmarked) [2-amino-3-methylhexanoic acid]
Inhibitory effect [1]: slight inhibitory effect
PIABS ([2]; 1 nM): 17.69 ± 2.12b
Cold injury index ([2]; 1 nM): 45%
PIABS ([2]; 10 nM): 21.30 ± 1.73ab
Cold injury index ([2]; 10 nM): 30%
PIABS ([2]; 100 nM): 27.01 ± 3.27a
Cold injury index ([2]; 100 nM): 15%
Decrease of cold injury index [2, 9]: 65%
Increase of PIABS [2, 9]: 313%
PIABS ([2]; 1,000 nM): 30.42 ± 3.51a
Cold injury index ([2]; 1,000 nM): 10%
Inhibitory effect [3]: slight inhibitory effect
Inhibitory effect [4]: no inhibitory effect
Inhibitory effect [5]: no inhibitory effect
Amino acid content ([6]; 10 nM): 2.03 ± 0.05b % DW
Heat injury rate ([6]; 10 nM, tea leaves): 30%
PIABS ([6]; 10 nM, 3 d after last use, tea leaves): 6.25 ± 0.51c
PIABS ([6]; 10 nM, 7 d after last use, tea leaves): 6.43 ± 0.44b
PIABS ([6]; 10 nM, 14 d after last use, tea leaves): 14.44 ± 0.59c
Increase of total amino acid content versus control group ([6]; 10 nM, high temperature stress): 22%
Amino acid content ([6]; 100 nM): 2.21 ± 0.32a % DW
Heat injury rate ([6]; 100 nM, tea leaves): 17%
PIABS ([6]; 100 nM, 3 d after last use, tea leaves): 8.26 ± 0.63b
PIABS ([6]; 100 nM, 7 d after last use, tea leaves): 8.07 ± 0.36a
PIABS ([6]; 100 nM, 14 d after last use, tea leaves): 19.29 ± 0.95b
Increase of total amino acid content versus control group ([6]; 100 nM, high temperature stress): 33%
Amino acid content ([6]; 1,000 nM): 2.20 ± 0.05a % DW
Heat injury rate ([6]; 1,000 nM, tea leaves): 15%
PIABS ([6]; 1,000 nM, 3 d after last use, tea leaves): 8.48 ± 0.61ab
PIABS ([6]; 1,000 nM, 7 d after last use, tea leaves): 8.14 ± 0.70a
PIABS ([6]; 1,000 nM, 14 d after last use, tea leaves): 19.85 ± 1.04ab
Increase of total amino acid content versus control group ([6]; 1,000 nM, high temperature stress): 33%
PIABS higher than control group ([6]; 10,000 nM, 3rd day after use): 108%
Amino acid content ([6]; 10,000 nM): 2.23 ± 0.08a % DW
PIABS higher than control group ([6]; 10,000 nM, 7th day after use): 48%
Heat injury rate ([6]; 10,000 nM, tea leaves): 14%
PIABS higher than control group ([6]; 10,000 nM, 14th day after use): 52%
PIABS ([6]; 10,000 nM, 3 d after last use, tea leaves): 8.68 ± 0.56a
PIABS ([6]; 10,000 nM, 7 d after last use, tea leaves): 8.36 ± 0.51a
PIABS ([6]; 10,000 nM, 14 d after last use, tea leaves): 21.97 ± 0.88a
Increase of total amino acid content versus control group ([6]; 10,000 nM, high temperature stress): 34%
Optimum use concentration (accumulation of amino acids in tea leaves) ([6]; tea leaves, high temperature stress): 100 nM
Disease index ([7]; 10 nM, Arabidopsis): 45.00 ± 2.78b
Number of bacteria in each milligram of leaf ([7]; 10 nM): 3.81 × 10^5 CPU/mg
Decrease of number of bacteria in each milligram of leaf ([7]; 10 nM): 88.24%
Decrease of disease index ([7]; 10 nM): 42.33
Number of bacteria in each milligram of leaf ([7]; 100 nM): 2.49×10^5 CPU/mg
Decrease of number of bacteria in each milligram of leaf ([7]; 100 nM): 92.31%
Decrease of disease index ([7]; 100 nM): 45.85
Inhibitory effect [8]: obvious inhibitory effect
